How the values were obtained:
hERG = target: T1, hERG (Homo sapiens, UniProt Q12809); assay: hERG patch clamp; assay type: cell-based; conditions: read-out: hERG patch clamp (% Inhib.)
T1 construct: expressed in transfected cells; host or cells: HEK293
Method: Whole-cell patch-clamp was used to directly measure hERG currents in HEK-293 cells stably expressing the cloned hERG potassium channel α subunit. […] Repetitive test pulses (0.05 Hz) were applied from a holding potential of −80 mV to +20 mV for 2 seconds and tail currents were elicited following the test pulses by stepping the voltage to −65 mV. The effects from the compound were calculated by measuring inhibition of peak tail current

[1] = system: monocyte/macrophage infiltration; assay: 48-hour thioglycollate (TG)-induced peritonitis model in hCCR-2 KI mouse; assay type: in vivo; conditions: for % inhibition of monocyte/macrophage infiltration: 48 h post TG
Method: The hCCR-2 KI mice (C57BL/6-SVJ129) were injected intraperitoneally with 1 ml of thioglycollate (TG) (Hardy Diagnostics). For each study, eight male mice per group were used. Example 1 was dosed orally 1 hour prior to TG injection. The vehicle used was 0.01 N HCl in water. Forty-eight hours post TG injection, peritoneal lavages were performed by injecting 5 ml PBS/10 mM EDTA/10% BSA into the peritoneal cavity.
For the 48-hour TG peritonitis study, Example 1 was dosed twice a day with the first dose one hour prior to TG injection. Total peritoneal cell counts were obtained on isolated cells by a cell counter. Cytospins were performed to determine differential leukocyte counts. The cells were stained for 3 minutes with Wright-Giemsa Stain (Sigma-Aldrich) and then rinsed with deionized water for 5 minutes. Differential counts were calculated based on a total of 200 cells counted per sample. Blood was also collected from the retro-orbital sinus at the end of each study in EDTA for determination of drug concentration.
For flow cytometric analysis, peritoneal exudate cells (1×10^6) were washed once with FACS buffer (PBS/0.5% BSA) and resuspended in FACS buffer. Cells were incubated with an Fc-blocking antibody (BD Pharmingen) on ice for 15 min followed by addition of the following antibodies (BD Pharmingen): PE conjugated anti-F4/80, FITC conjugated anti-Ly6C, and Alexa 647 conjugated anti-hCCR-2. After 45 min on ice, cells were fixed by BD CYTOFIX® for 15 min on ice, washed twice with FACS buffer, and resuspended in 200 μl FACS buffer. Cellular events (40,000) were acquired for each sample and data were analyzed using FloJo software (TreeStar). A FSC/SSC gate was set to include all monocytes (low SSC, higher FSC) while excluding granulocytes from the analysis. This gated population was then analyzed for Ly6C (FITC), F4/80 (PE) expression. Peritoneal monocytes/macrophage numbers were determined by multiplying total peritoneal cell counts obtained by the cell counter and the percentage of monocytes/macrophages identified by F4/80^+ cells from flow cytometry. Statistical significance of differences between means was analyzed using the paired two-tailed t test with significance set at p values below 0.05.
Example 1 was evaluated in the hCCR-2 KI mouse TG peritonitis model to determine its EC50 in inhibiting monocyte/macrophage infiltration. Mice were administered thioglycollate, and dosed orally with Example 1 at 10, 50, or 160 mg/kg BID. Forty eight hours post TG treatment, peritoneal lavage was obtained for cellular infiltrate analysis by flow cytometry.

human CCR-2 = target: T2, human CCR-2 (Homo sapiens, UniProt P41597); assay: CCR-2 chemotaxis, MCP-1-induced, THP-1 cells; assay type: cell-based
T2 sequence (P41597 1-360 isoform P41597-2): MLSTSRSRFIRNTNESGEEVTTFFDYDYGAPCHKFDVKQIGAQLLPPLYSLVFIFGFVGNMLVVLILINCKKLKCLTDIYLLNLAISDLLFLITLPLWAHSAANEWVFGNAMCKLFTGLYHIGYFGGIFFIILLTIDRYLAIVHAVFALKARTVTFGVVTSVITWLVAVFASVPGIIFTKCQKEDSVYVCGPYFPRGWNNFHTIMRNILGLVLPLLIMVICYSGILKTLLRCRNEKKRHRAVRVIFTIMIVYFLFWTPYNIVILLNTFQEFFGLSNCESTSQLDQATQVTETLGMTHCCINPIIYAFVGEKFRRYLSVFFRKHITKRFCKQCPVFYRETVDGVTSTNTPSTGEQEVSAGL
Method: The human CCR-2 chemotaxis assay was conducted with the human monocytic cell line, THP-1. THP-1 cells were first labeled with the fluorescent dye Calcein-AM in phenol red-free, BSA-free RPMI-1640 (pH 7.4) at 37° C. for 30 minutes with gentle mixing every 15 minutes. The labeled cells were then washed and re-suspended at 1×10^5/ml in chemotaxis buffer (phenol red-free RPMI-1640, 0.1% BSA, pH 7.4). The test compound was diluted in chemotaxis buffer such that the final assay concentration ranged from 0.01 nM to 1 μM. The ligand MCP-1 (PeproTech Inc.) was diluted to 20 nM in chemotaxis buffer. To perform the assay, an equal volume of test compound dilutions was mixed with an equal volume of labeled THP-1 cells (Mixture 1), and an equal volume of test compound dilutions was mixed with an equal volume of diluted MCP-1 ligand (Mixture 2). Both mixtures were incubated independently at 37° C. for 10 minutes followed by gentle mixing. MCP-1-induced chemotaxis was then measured in a chemotaxis plate (Becton Dickinson) by placing 50 μl of Mixture 1 in the top chamber and 225 μl of Mixture 2 in the bottom chamber. The plate was covered with a lid and incubated at 37° C. for 30 minutes. 30 minutes later, the plate was read on a CYTOFLUOR®. All conditions were tested in duplicate. […]

CCR-2 = CCR-2 (Homo sapiens, UniProt P41597); assay: CCR-2 whole blood integrin (CD11b) upregulation; assay type: cell-based
Method: A CCR-2-dependent CD11b upregulation assay was established with human whole blood. Whole blood (100 μl) was pre-incubated with a concentration range of Example 1 at 37° C. for 10 minutes. […] The reactions were incubated for 30 minutes at 37° C. […] The samples were then incubated for 30 minutes on ice in the dark. […] Data acquisition and analysis were performed using CellQuestPro software. A sequential gating strategy was used to analyze the CD14^high CD11b^+ monocyte population.

T1 sequence (Q12809 whole entry): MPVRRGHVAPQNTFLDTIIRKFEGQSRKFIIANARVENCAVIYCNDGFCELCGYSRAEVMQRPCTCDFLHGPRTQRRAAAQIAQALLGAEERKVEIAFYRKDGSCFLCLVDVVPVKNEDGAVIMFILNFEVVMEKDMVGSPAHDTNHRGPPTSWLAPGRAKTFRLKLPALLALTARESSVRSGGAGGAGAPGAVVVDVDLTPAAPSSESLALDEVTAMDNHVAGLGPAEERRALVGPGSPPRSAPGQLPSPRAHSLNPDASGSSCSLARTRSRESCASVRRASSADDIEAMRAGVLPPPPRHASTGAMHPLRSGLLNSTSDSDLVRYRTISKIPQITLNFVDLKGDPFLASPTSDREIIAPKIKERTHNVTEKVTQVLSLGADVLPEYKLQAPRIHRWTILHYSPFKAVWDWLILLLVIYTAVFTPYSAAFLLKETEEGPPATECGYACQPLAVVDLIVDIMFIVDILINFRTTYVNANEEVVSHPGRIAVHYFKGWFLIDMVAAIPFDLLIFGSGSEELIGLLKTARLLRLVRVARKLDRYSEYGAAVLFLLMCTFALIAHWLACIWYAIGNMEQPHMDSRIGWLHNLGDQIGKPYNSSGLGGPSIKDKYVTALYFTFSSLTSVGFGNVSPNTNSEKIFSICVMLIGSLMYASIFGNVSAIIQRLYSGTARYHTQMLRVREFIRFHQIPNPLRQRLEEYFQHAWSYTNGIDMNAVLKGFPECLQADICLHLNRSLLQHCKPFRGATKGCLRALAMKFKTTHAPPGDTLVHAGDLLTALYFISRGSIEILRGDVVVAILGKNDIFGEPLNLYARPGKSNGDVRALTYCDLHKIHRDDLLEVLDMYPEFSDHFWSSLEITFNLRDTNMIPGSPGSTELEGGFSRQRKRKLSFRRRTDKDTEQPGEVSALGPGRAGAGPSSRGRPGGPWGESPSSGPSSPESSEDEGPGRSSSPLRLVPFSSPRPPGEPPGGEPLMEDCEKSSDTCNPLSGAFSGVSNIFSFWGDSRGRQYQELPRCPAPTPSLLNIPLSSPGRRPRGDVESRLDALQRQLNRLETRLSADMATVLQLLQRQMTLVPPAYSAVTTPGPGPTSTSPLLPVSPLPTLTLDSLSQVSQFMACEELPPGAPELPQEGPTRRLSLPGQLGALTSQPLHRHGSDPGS
Chain of CCR-2 (P41597 whole entry): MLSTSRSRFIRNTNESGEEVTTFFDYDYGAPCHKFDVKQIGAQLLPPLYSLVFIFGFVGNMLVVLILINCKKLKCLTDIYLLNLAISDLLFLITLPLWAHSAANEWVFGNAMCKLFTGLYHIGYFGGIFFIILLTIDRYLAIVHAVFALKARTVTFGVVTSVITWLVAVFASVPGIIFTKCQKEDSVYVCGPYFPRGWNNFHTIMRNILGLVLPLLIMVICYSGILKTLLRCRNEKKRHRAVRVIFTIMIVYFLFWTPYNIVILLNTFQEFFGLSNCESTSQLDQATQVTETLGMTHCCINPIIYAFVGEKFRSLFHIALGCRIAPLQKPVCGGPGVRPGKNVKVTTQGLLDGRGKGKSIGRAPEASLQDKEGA

## CC(=O)N[C@@H]1C[C@H](NC(C)(C)C)CC[C@@H]1N1CC[C@H](Nc2ncnc3cc(C(C)(C)C)nn23)C1=O [Example 1, N-((1R,2 S,5R)-5-(tert-Butylamino)-2-((S)-3-(7-tert-butylpyrazolo[1,5-a][1,3,5]triazin-4-ylamino)-2-oxopyrrolidin-1-yl)cyclohexyl)acetamide]
hERG; pH 7.4, 10,000 nM
  inhibition at 10000 nM: 1.2%
hERG; pH 7.4, 30,000 nM
  inhibition at 30000 nM: 9.2%
[1]; 10 mg/kg oral BID
  % inhibition of monocyte/macrophage infiltration: 25%
[1]; 50 mg/kg oral BID
  % inhibition of monocyte/macrophage infiltration: 54%
[1]; 160 mg/kg oral BID
  % inhibition of monocyte/macrophage infiltration: 63%
[1]; 200 mg/kg (different study), oral BID
  % inhibition of monocyte/macrophage infiltration: 71%
[1]; Mus musculus, estimated from four separate studies, hCCR-2 KI mouse, read-out: average EC50 for inhibition of monocyte/macrophage infiltration
  EC50: 4.9 nM
[1]; four separate studies with multiple doses
  maximal inhibition of monocyte/macrophage infiltration reached: ~70%
Human CCR-2
  IC50: 0.8 ± 0.8 nM
CCR-2; comparison of CCR-2 and CCR-5 CD11b IC50
  activity against CCR-2 versus CCR-5 (Table 5): equipotent against CCR-2 and CCR-5
CCR-2; human whole blood, MCP-1 10 nM
  IC50: 4.8 nM

— patent publication US8618101B2, “N-((1R,2S,5R)-5-(tert-butylamino)-2-((S)-3-(7-tert-butylpyrazolo[1,5-a][1,3,5]triazin-4-ylamino)-2-oxopyrrolidin-1-yl)cyclohexyl)acetamide, a dual modulator of chemokine receptor activity, crystalline forms and processes” (Bristol-Myers Squibb Company, priority 2009, dated 2013)
